How the values were obtained:
[1] = system: mouse colon cancer CT26 cells; assay: Docetaxel/Eribulin/Paclitaxel and Defactinib: microscopy and CRT/Annexin-V/PI flow cytometry; type: cell-based; conditions: 48 hours, Defactinib 5 µM, Docetaxel 0.3 µM, Eribulin 0.3 µM, Paclitaxel 6 µM, alone or combined with Defactinib
Description: (§1) CT26 cells were cultured in monolayer in vitro under the following conditions: RPMI-1640 medium with 10% fetal bovine serum, 37°C, 5% CO2. Trypsin was used for routine digestion and passage treatment two to three times a week. When the cells were in the exponential growth phase and the adherent confluence reached 80%-90%, the cells were harvested and plated.
(§2) CT26 cells were digested with trypsin, and then the cells were collected and counted. Based on the counting results, the cells were diluted with the corresponding complete culture medium to a concentration of 50,000 cells per milliliter. Then the cells were plated in 12-well cell culture plates, with 2 ml of cell suspension per well, i.e., 100,000 cells.
(§3) After plating, the cells were cultured in a 37°C and 5% CO2 incubator.
After 24 hours of plating, the test compounds Docetaxel, Eribulin, Paclitaxel and Defactinib were added to different wells, respectively.
(§4) After 48 hours of drug action, the cells were photographed using a microscope, and then trypsinized and collected for flow cytometry staining.
(§5) The cells were washed twice with flow buffer (DPBS + 2% FBS). 0.5 µL of AF647 Anti-Calreticulin Antibody was added to each well, and mixed well. The cells were incubated at 4°C in the dark for 20 min. After washing once with flow buffer, 195 µL of Annexin-V-FITC binding solution was added, and the cells were gently mixed well. 5 µL of Annexin-V-FITC antibody was added. After further mixing, 10 µL of PI dye was added and mixed well. The cells were incubated at room temperature in the dark for 15 min. The cells were then subjected to flow cytometry.
(§6) After the assay, the cell positive rate was analyzed by Flowjo (V10) software.

breast cancer 4T1 cells = assay: Subcutaneous allograft tumor model of breast cancer 4T1 cells in BALB/c mice; type: in vivo
Source text: Mice: Female BALB/c mice aged 6-8 weeks were purchased from SHANGHAI SLAC LABORATORY ANIMAL CO. LTD. The assay began after the animals were adapted to the assay environment upon arrival. The animals were kept in IVC (independent ventilation system) cages (5 per cage) in an SPF animal room. All cages, padding and drinking water must be sterilized before use. All assay personnel should wear protective clothing and latex gloves when operating in the animal room. Cages, feed and drinking water were replaced twice a week. The feeding environment and lighting conditions were as follows: • Temperature: 20-26 °C • Humidity: 40-70% • Lighting period: 12 hours light, 12 hours no light • Cages: Made of polycarbonate, 300 mm × 180 mm × 150 mm. The padding was corn cobs, which was replaced twice a week. • Food: The assay animals had free access to food (dry pelleted food sterilized by irradiation) throughout the assay period. • Drinking water: Assay animals were free to drink sterile water. • Cage identification: The animal information card for each cage should indicate the number of animals in the cage, gender, strain, receipt date, dosing regimen, assay number, group and start date of the assay. • Animal identification: Assay animals were identified with ear tags.
Breast cancer cell 4T1 (source: Nanjing Cobioer Biotechnology Co., Ltd., catalog number: CBP60352) was maintained and passaged by INXMED (Nanjing) Co., Ltd. The cells were cultured in a monolayer in vitro in RPMI-1640 medium with 10% fetal bovine serum in a 37 °C, 5% CO2 incubator. Trypsin-EDTA was used for routine digestion and passage treatment two to three times a week. When the cells were in the exponential growth phase and the adherent confluence reached 80%-90%, the cells were harvested and plated.
0.1 mL of cell suspension containing 2 x 10^5 cells was subcutaneously inoculated on the right back of each mouse. When the tumor volume reached ~52 mm^3 (10th day after cell inoculation), the mice were randomly divided into groups for drug administration according to the tumor volume. Table 9. Dosing regimen of the test substance in 4T1 mouse transplant tumor model
The formulation and any modifications of this assay protocol had been assessed and approved by the IACUC of ArrayBridge. The use and welfare of assay animals were carried out in accordance with AAALAC regulations. The health status and mortality of animals were monitored daily, with routine checks including observation of tumor growth and the impact of drug treatment on the animals' daily behavior, such as activity, food and water intake (estimated by visual inspection), changes in body weight, physical signs, or any other abnormalities. The number of animal deaths and side effects in each group were recorded based on the number of animals in each group.
If the animal's health condition continued to deteriorate, or if the tumor volume exceeded 3,000 mm^3, or there was a serious disease or pain, euthanasia should be carried out. In the following cases, the veterinarian was notified and euthanasia was performed: obvious weight loss, i.e., weight loss greater than 20%; inability to freely eat and drink; the average tumor volume of the control group reached 2000 mm^3, the assay was terminated.
Tumor diameters were measured three times a week using calipers. The tumor volume was calculated using the formula: V = 0.5 × a × b^2, where a and b represent the long and short diameters of the tumor, respectively.
Based on the tumor volume on the first day after grouping, the tumor growth inhibition rate TGI (%) was calculated according to the following formula: TGI (%) = [1 - (average tumor volume of a treatment group - average tumor volume of the treatment group at the beginning of treatment) / (average tumor volume of the solvent control group - average tumor volume of the solvent control group at the beginning of treatment)] × 100%. […]

colon cancer CT26 cells = assay: IN10018 and Docetaxel: microscopy and CRT/Annexin-V/PI flow cytometry; type: cell-based, mouse; conditions: 48 hours, IN10018 5 µM, Docetaxel 0.1 µM, alone or combined
Description: CT26 cells (Institute of Cell Biology, Chinese Academy of Sciences) were cultured with RPMI-1640 (Shanghai Basalmedia, catalog number: L210KJ, batch number: F210916) + 10% FBS (Gibco, catalog number: 10099-141c, batch number: 2158737cp), and passaged twice. When the cells were in good condition, they were placed in a 24-well plate. After 24 hours of cell spreading, four groups were set up. The first group was the control group, in which culture medium was added; the second group was IN10018 at a concentration of 5µM; the third group was Docetaxel (MCE, classification number: HY-B0011, batch number: 111613) with a concentration of 0.1µM; and the fourth group was the combination group of IN10018 (5 µM) and Docetaxel (0.1µM). The drugs were mixed and cultured in a 5 % CO2 incubator at 37°C for 48 hours.
After 48 hours of drug action, the cells were observed and photographed under a microscope. The photos were saved. Then the cells were collected for flow cytometry, and the cells were washed twice with flow buffer (PBS + 2% FBS). 0.5 µl of AF647 anti-calreticulin antibody (abcam, catalog number: ab196159, batch number: CR33676773) was added to each well, and fully mixed. The cells were incubated at 4 °C for 20 minutes in the dark. […] The mixture was incubated at room temperature in the dark for 15 minutes, and then analyzed on a flow cytometer.

[2] = system: mouse breast cancer 4T1 cells; assay: Eribulin and IN10018: microscopy and CRT/Annexin-V/PI and GRP94 flow cytometry; type: cell-based; conditions: 48 hours, IN10018 5 µM, Eribulin 0.15 µM or 0.45 µM, alone or combined
Description: as §1, with “4T1” for “CT26”, “37 °C,” for “37°C,”
4T1 cells were digested with trypsin and then collected and counted. Based on the counting results, the cells were diluted with RPMI-1640+10% FBS to a concentration of 50,000 cells per milliliter. Then the cells were plated in 12-well cell culture plates, with 2 ml of cell suspension per well, i.e., 100,000 cells. After plating, the cells were cultured in a 37°C and 5% CO2 incubator.
(§7) After 24 hours of plating, test compounds IN10018 and Eribulin were added to different wells, respectively.
as §4
The cells were washed twice with flow buffer (DPBS + 2% FBS), and each group of cells was divided into two equal parts. In one part, 0.5 µL of AF647 Anti-Calreticulin Antibody was added to each well, and mixed. The cells were incubated at 4°C in the dark for 20 min. […]
as §6

[3] = system: human ovarian epithelial carcinoma TOV-21G cells; assay: Eribulin and IN10018: microscopy and CRT/Annexin-V/PI flow cytometry; type: cell-based; conditions: 48 hours, IN10018 10 µM, Eribulin 0.045 µM, alone or combined
Description: (§8) ID8 cells and TOV-21G cells were cultured in monolayer in vitro. ID8 cells were cultured in DMEM medium with 10% fetal bovine serum. TOV-21G cells were cultured in RPMI-1640 medium with 10% fetal bovine serum. Both were cultured in a 37 °C, 5% CO2 incubator. Trypsin was used for routine digestion and passage treatment two to three times a week. When the cells were in the exponential growth phase and the adherent confluence reached 80%-90%, the cells were harvested and plated.
as §2, with “ID8 cells and TOV-21G” for “CT26”, “trypsin” for “trypsin,”, “then” for “then the cells were”
as §3, §7, §4
as §5, with “well, and mixed. The cells” for “well, and mixed well. The cells”
as §6

[4] = system: mouse ovarian epithelial carcinoma ID8 cells; assay: as above; type: cell-based; conditions: 48 hours, IN10018 10 µM, Eribulin 0.045 µM, alone or combined
Description: as §8
as §2, with “ID8 cells and TOV-21G” for “CT26”, “trypsin” for “trypsin,”, “then” for “then the cells were”
as §3, §7, §4
as §5, with “well, and mixed. The cells” for “well, and mixed well. The cells”
as §6

Structure (SMILES): CC(=O)O[C@H]1C(=O)[C@@]2(C)[C@H]([C@H](OC(=O)c3ccccc3)[C@]3(O)C[C@H](OC(=O)[C@H](O)[C@@H](NC(=O)c4ccccc4)c4ccccc4)C(C)=C1C3(C)C)[C@]1(OC(C)=O)CO[C@@H]1C[C@@H]2O [Paclitaxel]
- cell status (cell death) under a microscope [1]: obvious

Structure (SMILES): Cc1c(C=Cc2cc(CNC(C)(CO)C(=O)O)ccc2C(F)(F)F)cccc1-c1ccc2c(c1)OCCO2 (stereo not drawn) [MAX10181]
- Tumor volume on day 0 (breast cancer 4T1 cells; baseline at grouping (10th day after inoculation), mean ± standard error, 6 mice per group): 51.7 ± 13.9 mm^3
- TGI (breast cancer 4T1 cells; day 21 after administration, vs control group, DTX 10 mg/kg i.p. BIW, IN10018 25 mg/kg p.o. QD, MAX10181 120 mg/kg p.o. BID): -3.7%
- Tumor volume on day 21 (breast cancer 4T1 cells; day 21 after administration, DTX 10 mg/kg i.p. BIW, IN10018 25 mg/kg p.o. QD, MAX10181 120 mg/kg p.o. BID, mean ± standard error): 2205.7 ± 912.7 mm^3
- death of animals (breast cancer 4T1 cells; entire dosing cycle (21 days), 6 mice per group, deaths following diarrhea, MAX10181 120 mg/kg p.o. BID, DTX 10 mg/kg i.p. BIW): one

Structure (SMILES): COc1cc(C(=O)NC2CCN(C)CC2)c(F)cc1Nc1ncc(C(F)(F)F)c(Oc2cccc3c2C(=O)N(C)C3)n1 [IN10018]
- cell status under a microscope (colon cancer CT26 cells): good
- cell status (cell death / cell viability) under a microscope [2]: better
- cell status (cell death / cell viability) under a microscope [3]: better
- cell status (cell death / cell viability) under a microscope [4]: better

— EP4578449A1, “PHARMACEUTICAL COMBINATION OF FAK INHIBITOR AND MICROTUBULE INHIBITOR AND USE THEREOF” (Inxmed (Nanjing) Co., Ltd., priority 2022, dated 2024)
